Results taken from ChEMBL document CHEMBL1145438, “Synthesis and matrix metalloproteinase (MMP)-12 inhibitory activity of ageladine A and its analogs” (Bioorg Med Chem Lett, 2007).

Target: Macrophage metalloelastase (Homo sapiens, UniProt P39900)
Test: Inhibition of MMP12

Chain of Macrophage metalloelastase (P39900 whole entry): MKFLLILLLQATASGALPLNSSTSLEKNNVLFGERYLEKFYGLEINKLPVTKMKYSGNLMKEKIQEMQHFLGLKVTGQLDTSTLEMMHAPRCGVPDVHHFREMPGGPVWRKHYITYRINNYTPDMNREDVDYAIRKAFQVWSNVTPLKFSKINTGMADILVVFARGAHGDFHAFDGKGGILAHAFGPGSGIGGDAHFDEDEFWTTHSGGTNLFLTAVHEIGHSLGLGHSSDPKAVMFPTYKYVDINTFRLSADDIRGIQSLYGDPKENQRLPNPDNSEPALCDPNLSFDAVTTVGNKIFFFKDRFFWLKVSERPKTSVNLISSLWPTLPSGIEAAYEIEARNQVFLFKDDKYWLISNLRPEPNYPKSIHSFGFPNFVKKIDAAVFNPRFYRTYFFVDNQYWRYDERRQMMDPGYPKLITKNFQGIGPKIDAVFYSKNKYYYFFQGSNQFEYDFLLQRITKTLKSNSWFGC

IC50 | SMILES
> 100 µM | CNc1nc2c(-c3cc(Br)c(Br)[nH]3)nccc2n1C
> 100 µM | CN(C)c1nc2c(-c3cc(Br)c(Br)[nH]3)nccc2[nH]1
> 100 µM | Nc1nc2c(-c3ccc[nH]3)nccc2[nH]1
> 100 µM | Cn1c(-c2nccc3[nH]c(N)nc23)cc(Br)c1Br
> 100 µM | Nc1nc2c(-c3cc(Br)c[nH]3)nccc2[nH]1
56.9 µM | Cn1c(N)nc2c(-c3cc(Br)c(Br)[nH]3)nccc21
43.6 µM | Brc1cc(-c2nccc3[nH]cnc23)[nH]c1Br
10.4 µM | CNc1nc2c(-c3cc(Br)c(Br)[nH]3)nccc2[nH]1
> 100 µM | Nc1nc2c(-c3ccc(Br)[nH]3)nccc2[nH]1
3.66 µM | Nc1nc2c(-c3cc(Br)c(Br)[nH]3)nccc2[nH]1 [AGELADINE A]
